Assay results taken from PMC7822816, “Halo-fluorescein for photodynamic bacteria inactivation in extremely acidic conditions” (Nature Communications, 2021).
Values joined by “and” are separate entries in the source; they are usually repeats but may differ in a detail not shown here. Identical values can stand only once.

Columns and labels:
[1] = tested on: bacteria in passionfruit lemon juice; experiment: Photodynamic sterilization of acidic juices
Experimental: The prepared juice samples were divided into two groups: one for light treatment of 10–20 min (xenon lamp with 420 nm long-pass filter, 100 mW/cm^2), and another without (stored at 4 °C). […] For other juices (pH 3.6–4.6), similar bacteria inhibition results were obtained (Supplementary Figs. 63–66). Besides, the greatly extended shelf life was also applicable to strawberry juice (Supplementary Fig. 67) and tomato juice (Supplementary Fig. 68). […] It should be noted that the TIF-based method was efficient in treatment of acid- and heat-resistant A. acidoterrestris (Fig. 6), the main cause of fruit juice spoilage and deterioration (even after pasteurization[41]).
Fresh juices were prepared and divided into two groups (each to a culture dish of 60 mm id), and then TIF was added with final concentration of 10 μM. One group was subjected to light processing (xenon lamp, 300 W, 420 nm optical filter, beam spot size 60 mm) for 10–20 min, and another without. All samples were sub-packed into the headspace bottle and stored in 4 °C for different time. To determine the bacteria colonies, 1 mL juice samples were mixed with plate count agar and culture at 37 °C for 48 h (GB 4789.2-2016). Afterward, the total number of bacteria colonies were counted.

MRSA = experiment: IC50 / growth inhibition of photodynamic inactivation, MRSA; assay type: cell-based, methicillin-resistant S. aureus
[2] = pH titration of halogenated fluorescein (pH0.5); assay type: physicochemical
Experimental: The pH0.5 values (the pH value when the open form reduce to the half of the maximum) of various fluorescein derivatives were determined experimentally through pH titration (Supplementary Figs. 6–16).
The pH of the solutions were adjusted through varying the ratios of citric acid and Na2HPO4 (pH 2.2–8.0), and further acidity was adjusted with concentrated HCl or 1 M NaOH. The absorption and fluorescence spectra of the resultant solutions were then collected.
Section S5. pH-dependent Properties of the Halogenated Fluoresceins.
S5.1 pH titration of halogenated fluorescein
Fluorescein derivatives (Supplementary Table 1) were dissolved in DMSO to obtain 1 mM stock solutions and then diluted with citric acid-Na2HPO4 buffer (100 mM) to 10
μM. The pH of the solutions were adjusted through varying the ratios of citric acid and Na2HPO4 (pH 2.2-8.0), and further acidity was adjusted with concentrated HCl or 1 M
NaOH. The absorption and fluorescence spectra of the resultant solutions were then

[3] = assay type: physicochemical; conditions: buffer, 5 min, pH 3
Experimental: Next, the influence of the added TIF to jucies after photodynamic sterilization was further investigated from the following two aspects. First, like many other dyes, TIF experienced photo-bleaching upon photo irradiation. As shown in Supplementary Fig. 69, in the presence of green LED irradiation (520 nm, 50 mW/cm^2), the absorbance of TIF decreased rapidly in 5 min (with ~22% remaining). In other words, most of the added TIF in juices is expected to lose the ability of ROS generation after the first photodynamic sterilization process. Second, the ingredients inside the juices before and after TIF-involved photodynamic sterilization were evaluated. Here, the investigations were concentrated on antioxidants due to the high activity of ROS[42]. Three representative antioxidants, namely, ascorbic acid (vitamin C), phenolic compounds, and flavonoid, were chosen. […] Besides, the color, flavor, and texture of the juices were roughly evaluated through visual observation and smelling (method supplied in the Chinese National Standard GB/T 31121-2014), no appreciable changes were observed before and after TIF-based photodynamic sterilization. […]
(1) The photo-bleaching of TIF. […] As can be seen from Figure R3 below, in the presence of green LED irradiation (520 nm, 50 mW/cm2), the absorbance of TIF decreased rapidly in 5 min (with ~22% remaining). […]

SMILES: O=C(O)c1ccccc1-c1c2cc(I)c(=O)c(I)c-2oc2c(I)c(O)c(I)cc12 [TIF, 2′,4′,5′,7′-tetraiodofluorescein]
- shelf life of juice after photo-treatment ([1]; passionfruit lemon juice pH 2.8, 10 μM, xenon lamp 420 nm long-pass 100 mW/cm^2, 10 min, stored at 4 °C): ~ 15 days and 15 days
- sterilization performance compared with standard methods ([1]; passionfruit lemon juice, versus pasteurization and O3 treatment): comparable sterilization performance as pasteurization
- IC50 (MRSA; Staphylococcus aureus, 10 min, pH 2.5, LED 520 nm, 35 mW/cm^2, 10 min): 340 nM
- Inhibition ratio (MRSA; dose 2.0 μM, 3 V/3 W, 6 mW/cm2, 10 min): > 97.1%
- pH0.5 ([2]; 2% DMSO citric acid-disodium hydrogen phosphate buffer (Supplementary Table 4)): 4.07
- lowering of pH0.5 compared with fluorescein ([2]; difference to fluorescein (6.09)): 2.02 units
- absorbance remaining after photo-bleaching [3]: ~ 22%
